Experiments:
Type in all cases: cell-based, mouse
iN cells = test: Patch-clamp electrophysiology of iN cells; details: for functionality of derived iN cells: electrophysiological analysis
Protocol: For functional assessment of the iN cells, patch-clamp electrophysiology analysis was performed. All experiments were conducted at room temperature (22° C.-24° C.). All reagents were purchased from Sigma-Aldrich unless otherwise specified. Whole-cell recording was made from neurons using a patch clamp amplifier (MultiClamp 700B, Axon Instr.) under infrared differential interference contrast optics. Microelectrodes were made from borosilicate glass capillaries, with a resistance of 4-5 MW. For recording action potentials, cells were held at −70 mV in a […]. The intracellular solution for whole-cell recording of EPSPs and action potentials contained (in mM) 140 potassium gluconate, 5 KCl, 10 HEPES, 0.2 EGTA, 2 MgCl2, 4 MgATP, 0.3 Na2GTP and 10 Na2-phosphocreatine, pH 7.2 (adjusted with KOH).
For recording spontaneous EPSCs (sEPSCs), cells were pre-treated with the extracellular bath solution containing 50 μM picrotoxin (Tocris) to exclude an inhibitory synaptic activity and held at −70 mV in a voltage-clamp mode with the intracellular solution containing (in mM) 130 CsMeSO4, 7 CsCl, 10 HEPES, 1 EGTA, 4 MgATP, 0.3 Na2GTP, and 10 Na2-phosphocreatine, pH 7.3 (adjusted with CsOH). After recording basal sEPSC responses for 5 min, 10 μM CNQX (Tocris) and 100 μM D,L-APV (Tocris) were co-treated to test whether sEPSCs were mediated by activation of both AMPA- and NMDA-type of glutamate receptors. For measuring spontaneous IPSC (sIPSCs), cells were pre-treated with the bath solution containing 10 μM CNQX and 100 μM D,L-APV and held at −70 mV with the intracellular solution containing (in mM) 137 CsCl, 10 HEPES, 1 EGTA, 4 MgATP, 0.3 Na2GTP, and 10 Na2-phosphocreatine, pH 7.3 (adjusted with CsOH). 50 μM picrotoxin was then treated to test a dependency of sIPSCs on GABA receptors after acquiring basal sIPSC responses for 5 min. Series resistance (10-25 MΩ) and input resistance (˜200 MΩ using potassium-based internal solution; 1-2 G2 using Cs-based internal solution) were monitored throughout the whole-cell recording or compared before and after sEPSC/IPSC recordings.
Off-line analyses of action potential properties (number, amplitude, half-width) and the amplitude and frequency of sEPSC and sIPSC were performed by using a threshold event detection function of the Clampfit software (Molecular Devices). Visualization of analysis results and their statistical tests were performed by using GraphPad Prism® 6.0 software.

[1] = test system: promoter or enhancer regions of neuronal and mesenchymal genes; test: ATAC-seq chromatin accessibility; details: 10 μM blebbistatin or 5 μM PF573228, 2 hours
Protocol: A total of 1,000,000 fibroblasts treated with vehicle control (DMSO), 10 μM blebbistatin or 5 μM PF573228 were collected after 2 hours and stored at −80° C. prior to sample processing. ATAC-seq was performed as described previously^47. In brief, frozen cells were thawed and washed once with PBS and then resuspended in 500 μL of cold PBS. The cell number was assessed by Cellometer Auto 2000 (Nexcelom Bioscience, Massachusetts, USA). 100,000 cells were then added to ATAC lysis buffer and centrifuged at 500 g in a pre-chilled centrifuge for 5 minutes. Supernatant was removed and the nuclei were resuspended in 50 μL of tagmentation reaction mix by pipetting up and down. The reactions were incubated at 37° C. for 30 minutes in a thermomixer with shaking at 1,000 r.p.m., and then cleaned up using the MiniElute reaction clean up kit (Qiagen). Tagmented DNA was amplified with barcoded primers. Library quality and quantity were assessed with Qubit 2.0 DNA HS Assay (ThermoFisher), Tapestation High Sensitivity D1000 Assay (Agilent Technologies), and QuantStudio® 5 System (Applied Biosystems). Equimolar pooling of libraries was performed based on QC values and sequenced on an Illumina® NovaSeq (Illumina, California, USA) with a read length configuration of 150 PE for [100]M PE reads (50M in each direction) per sample.
FASTQ files were trimmed with Trim Galore and cutadapt^48. Pair-ended reads were then aligned to the mouse reference genome (mm10) with Bowtie2^49. Mitochondrial reads and PCR duplicates were removed using SAMtools^50 and Picard (http://broadinstitute.github.io/picard/), respectively. Peaks were called over input using MACS3^51, and only peaks outside the ENCODE blacklist region were kept. All peaks from all samples were merged and featureCount^52 was used to count the mapped reads for each sample.

[2] = test system: histone deacetylase (HDAC); test: HDAC activity assay on nuclear extracts of treated fibroblasts; details: 10 μM blebbistatin or 5 μM PF573228, 2 hours, vs DMSO
Protocol: Nuclear protein extractions were isolated from 5×10^5 fibroblasts treated with vehicle control (DMSO), 10 μM blebbistatin or 5 μM PF573228 for 2 hours using a nuclear extraction kit (EpiGentek, OP-0002), in accordance with the manufacturer's instructions. HAT, HDAC, H3K4 HMT, H3K4 HDM and DNMT activity were measured using the HAT activity/inhibition assay (EpiGentek, P-4003-048), HDAC activity/inhibition assay (EpiGentek, P-4034-096), Histone methyltransferase (H3K4 specific) activity/inhibition assay (EpiGentek, P-3002-1), Histone Demethylase (H3K4 specific) activity/inhibition assay (EpiGentek, P-3074-48), and DNMT activity/inhibition assay (EpiGentek, P-3009-048), respectively. Per the manufacturer's instructions, 20 μg of nuclear extract was added into the assay wells and incubated at 37° C. for 90 minutes. After adding the color developer solution, the absorbance was measured using a plate reader (Infinite […], 30050303) at 450 nm for all the assays with the exception of the Histone Demethylase (H3K4 specific) activity/inhibition assay where we measured the fluorescence using a fluorescence microplate reader at 530 EX/590 EM nm.

[3] = absence vs presence of blebbistatin

HDAC activity [2] | SMILES | functionality of derived iN cells (iN cells) | chromatin accessibility of mesenchymal genes [1] | chromatin accessibility of neuronal genes (Ascl1, Brn2, Myt1l, Tubb3) [1] | frequency of spontaneous EPSCs (iN cells; [3]) | frequency of spontaneous IPSCs (iN cells; [3]) | IPSC amplitude (iN cells; blebbistatin-derived iN cells) | EPSC amplitude (iN cells; iN cells derived with blebbistatin) | action potential properties (iN cells; iN cells generated in absence vs presence of blebbistatin)
differences | CS(=O)(=O)c1cccc(CNc2nc(Nc3ccc4c(c3)CCC(=O)N4)ncc2C(F)(F)F)c1 [PF573228] | exhibited functional neuronal properties as assessed by electrophysiological analysis | slightly decrease the accessibility of mesenchymal genes | could increase the accessibility at the promoter or enhancer regions of neuronal genes |  |  |  |  | 
reducing | Cc1ccc2c(c1)C(=O)C1(O)CCN(c3ccccc3)C1=N2 (stereo not shown) [blebbistatin] | functional, exhibiting spontaneous changes in membrane potential in response to current injection | slightly decreased the accessibility at the promoters or enhancer regions of some mesenchymal genes | could increase the accessibility at the promoter or enhancer regions of neuronal genes | no significant difference | no significant difference | significantly lower | significantly higher | no apparent difference

— patent US20230381774A1, “MICROFLUDIC LAB-ON-CHIP DEVICE, MATRIX, SMALL MOLECULES AND THREE-DIMENSIONAL SPHEROIDS FOR CELL REPROGRAMMING” (The Regents of the University of California, priority 2022, published 2023)
